Assay results reported in US12195771B2, “Combination chemotherapy for the treatment of cancer” (WISCONSIN ALUMNI RESEARCH FOUNDATION, priority 2017, dated 2025).

Assays:
[1] = system: human A549 lung cancer cells; assay: Assay of cell viability with two drugs (kinase inhibitor + ptRNase), A549; type: cell-based; details: for Synergism with ptRNase?: A549 cells, two-drug combination with ptRNase
Protocol: We measured cell viability with a tetrazolium dye-based assay for metabolic activity.
We used the EC50 values obtained from single-drug treatment (Table 1) to design subsequent drug combination experiments. Two-drug combination experiments were performed using a 5×5 matrix to interrogate 25 concentration ratios per combination.
(§1) The EC50 values obtained from single-drug cell viability assays were used to design subsequent drug combination experiments. Two-drug combination experiments were performed by using a 5×5 matrix in 96-well plates to interrogate 25 dosing pairs. Cells in complete growth medium were plated at 5,000 cells per well in a 96-well microplate, which was incubated for 24 h at 37° C. […] After 48 h, cell viability was evaluated as described above.
(§2) The dose-effect curve for each drug was determined based on experimental observations and was compared to the effect afforded by the two-drug combination to derive a CI value. The CI values for all combinations were calculated using CalcuSyn 2.0 from Biosoft (Cambridge, UK). […] Each CI value was the mean of the results from 3 biological replicates.

[2] = system: human melanoma cells (SK-MEL-28, A375, Malme-3M); assay: Assay of cell viability with two drugs, melanoma cell lines; type: cell-based; details: across three melanoma cell lines (FIG. 5)
Protocol: None of the agents were toxic to normal skin fibroblasts at the tested doses (FIG. 10).
as §1, §2

[3] = system: human lung cancer cells (A549); assay: Assay of cell viability with a single drug (tetrazolium dye-based MTS assay), A549; details: single agent, 48 h, value ± SE, n = 3
Protocol: To test this hypothesis, we treated human lung cancer cells for 48 h with trametinib or with three other kinase inhibitors: PD 0332991 (which is a CDK4/CDK6 inhibitor), bosutinib (which is a Src family kinase inhibitor), or crizotinib (which is an ALK inhibitor) (Boschelli et al., 2001; Fry et al., 2004; Zou et al., 2007). We measured cell viability with a tetrazolium dye-based assay for metabolic activity. The ensuing EC50 values are listed in a Table 1 and in the table in FIG. 10.
(§3) Cells in complete growth medium were plated at 5,000 cells per well in a 96-well microplate, which was incubated for 24 h. […] After 48 h, the medium was removed, and cells were incubated for 2 h with CellTiter 96® MTS reagent from Promega. Absorbance was recorded on an M1000 fluorimeter from Tecan (Morrisville, NC) at 490 nm. Data were analyzed with Prism 5.0 software from GraphPad (La Jolla, CA). Values of EC50, which is the concentration of a drug that gives half-maximal cell viability, were calculated with the equation: […]
(§4) where y is cell viability, x is the concentration of drug, and h is the Hill coefficient. Data were plotted on a log scale with each data point being the mean of 3 biological replicates.

[4] = system: phosphorylation of MEK, ERK, RSK and RI in SK-MEL-28 cells; assay: Immunoblotting and pull-down of biotinylated RI after kinase inhibitor treatment; type: cell-based, human; details: for phosphorylation of MEK / phosphorylation of ERK and RSK: SK-MEL-28, 24 h; for phosphorylation of MEK: bosutinib 5 μM, crizotinib 2 μM, PD 0332991 2 μM, selumetinib 10 nM, dabrafenib 10 nM, trametinib 1 nM; for phosphorylation of ERK and RSK: same inhibitor concentrations as FIG. 6; for phosphorylation of RI (α-pSer, α-pThr): biotinylated RI captured from SK-MEL-28 cells, 24 h inhibitor treatment
Protocol: FIGS. 6A-6B are immunoblots showing that inhibition of the ERK pathway prevents the phosphorylation of RI in SK-MEL-28 cells. Cells transfected to produce biotinylated RI were treated with bosutinib (5 μM), crizotinib (2 μM), PD 0332991 (2 μM), selumetinib (10 nM), dabrafenib (10 nM), or trametinib (1 nM) for 24 h. (A) Treatment with inhibitors of non-ERK pathway kinases has no effect on the phosphorylation of MEK, ERK, or RSK in cell lysates. Treatment with dabrafenib reduces the phosphorylation of MEK (α-pMEK ½ lane) as well as that of ERK and RSK (α-pERK ½, and α-pRSK lanes). Treatment with selumetinib and trametinib reduces the phosphorylation of ERK and RSK. (B) Treatment with inhibitors of non-ERK pathway kinases has no effect on phosphorylation of biotinylated RI, which was captured by using streptavidin-coated magnetic beads. Inhibition of ERK-pathway kinases diminishes phosphorylation of RI (α-pThr, and α-pSer lanes).
The inventors further confirmed the apparent effect of kinase inhibitors on RI phosphorylation by immunoblotting. Biotinylated RI was isolated by using streptavidin-coated magnetic beads from SK-MEL-28 cells after transient transfection for 48 h. To detect phosphorylated species, we used α-pSer or α-pThr. […] These biochemical data provide direct evidence that kinases in the ERK pathway are indeed responsible for phosphorylating RI, in agreement with the observed synergism.
Cells grown in a 10-cm dish were lysed with 1 mL of M-PER™ Mammalian Protein Extraction Reagent (a mammalian protein extraction reagent that contains a mild, nondenaturing detergent) containing PIERCE™ Protease Inhibitor Tablets (tablets containing protease inhibitors AEBSF, aprotinin, bestatin, E-64, leupeptin, and pepstatin A), PIERCE™ Phosphatase Inhibitor Tablets (sodium fluoride, sodium orthovanadate, sodium pyrophosphate, and beta-glycerophosphate for broad-spectrum inhibition of phosphatase activity), and DTT (1 mM). Cell lysates were subjected to centrifugation for 10 min at 14,000 g to remove cell debris, and the total protein concentration in the supernatant was determined with a Bradford protein assay. Protein (˜30 μg) was separated by SDS-PAGE using a gel from Biorad (Hercules, CA), and the resulting gel was subjected to transfer to a PVDF membrane with an IBLOT® 2 (a dry transfer device that performs western blotting transfer without the need for liquid buffers) dry transfer system. The membrane was blocked for 1 h in a solution of BSA (5% w/v) in TBS-Tween (TBS-T), washed, and then incubated overnight at 4° C. with an antibody (1:500 dilution) in TBS-T containing BSA (5% w/v). After another wash with TBS-T, membranes were incubated with secondary antibody (1:3000 dilution), washed again, and then detected with an Amersham ECL Select Western Blotting Detection Reagent and by an ImageQuant™ LAS4000 instrument from GE Healthcare (Marlborough, MA).
For pull-down assays, after isolation of the total protein, samples were incubated overnight at 4° C. with Streptavidin […]® (magnetic particles coated with streptavidin) Paramagnetic Particles from Promega. The beads were washed (3×) with PBS containing 1 mM DTT. Samples were eluted with 50 μL of SDS gel-loading dye and processed further for immunoblotting.

V600E/K variants of BRAF = details: Kefford et al., 2010; King et al., 2013; cited from earlier work
G12C variant of KRAS = G12C variant of KRAS (Homo sapiens, UniProt P01116, G12C); details: Patricelli et al., 2016, Lito et al.; cited from earlier work
H358 cells (KRAS G12C) [5] = assay: Assay of cell viability with two drugs (ARS-853 + ptRNase), H358; type: cell-based, human; details: 5×5 matrix, CI (FIG. 4C)
Protocol: as §1, §2

H358 cells (KRAS G12C) [6] = assay: Assay of cell viability with a single drug (MTS assay), H358; type: cell-based, human
Protocol: as §3, §4

G12C variant of KRAS, sequence (P01116 1-188 isoform P01116-2 G12C): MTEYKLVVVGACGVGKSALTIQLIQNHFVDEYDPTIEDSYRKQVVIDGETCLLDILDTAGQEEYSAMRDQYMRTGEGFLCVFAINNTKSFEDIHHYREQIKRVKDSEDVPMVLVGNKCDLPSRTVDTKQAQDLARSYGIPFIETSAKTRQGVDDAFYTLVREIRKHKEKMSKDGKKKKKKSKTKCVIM

CC(C)(C)c1nc(-c2cccc(NS(=O)(=O)c3c(F)cccc3F)c2F)c(-c2ccnc(N)n2)s1 [Dabrafenib]
Synergism with ptRNase? [1]: Yes
effect of combination with trametinib (without ptRNase) [2]: additive effect
synergy of combination with the ptRNase [2]: strong synergy
EC50 ([3]; Homo sapiens): 40 ± 5 µM
phosphorylation of MEK [4]: only a weak band of phosphorylated MEK
phosphorylation of ERK and RSK [4]: no detectable phosphorylation
phosphorylation of RI (α-pSer, α-pThr) [4]: no detectable phosphorylation
inhibitory activity against the V600E/K variants of BRAF (V600E/K variants of BRAF): robust inhibitory activity

C[C@@H](Oc1cc(-c2cnn(C3CCNCC3)c2)cnc1N)c1c(Cl)ccc(F)c1Cl [Crizetinib]
EC50 ([3]; Homo sapiens): 0.11 ± 0.02 µM
phosphorylation of MEK [4]: insignificant effects
phosphorylation of ERK and RSK [4]: insignificant effects
phosphorylation of RI (α-pSer, α-pThr) [4]: Strong bands for phosphorylated RI

COc1cc(Nc2c(C#N)cnc3cc(OCCCN4CCN(C)CC4)c(OC)cc23)c(Cl)cc1Cl [Bosutinib]
EC50 ([3]; Homo sapiens): 0.73 ± 0.06 µM

Cn1cnc2c(F)c(Nc3ccc(Br)cc3Cl)c(C(=O)NOCCO)cc21 [Selumetinib]
EC50 ([3]; Homo sapiens): 43 ± 5 µM

CC(=O)c1c(C)c2cnc(Nc3ccc(N4CCNCC4)cn3)nc2n(C2CCCC2)c1=O [PD 0332991]
Synergism with ptRNase? [1]: No
EC50 ([3]; Homo sapiens): 0.24 ± 0.04 µM
phosphorylation of MEK [4]: insignificant effects
phosphorylation of ERK and RSK [4]: insignificant effects
phosphorylation of RI (α-pSer, α-pThr) [4]: Strong bands for phosphorylated RI

CC(=O)Nc1cccc(-n2c(=O)n(C3CC3)c(=O)c3c(Nc4ccc(I)cc4F)n(C)c(=O)c(C)c32)c1 [Trametinib]
EC50 ([3]; Homo sapiens): 5.7 ± 0.6 µM

C=CC(=O)N1CC(N2CCN(C(=O)CNc3cc(C4(C)CC4)c(Cl)cc3O)CC2)C1 [ARS-853]
cellular inhibitory activity against the G12C variant of KRAS (G12C variant of KRAS): robust cellular inhibitory activity
synergy with the ptRNase judged by combination index (CI) ([1]; A549, 5×5 concentration matrix, kinase inhibitor 1 h then ptRNase, 48 h): additive effect
Synergism with ptRNase? [1]: Yes
effect of combination with the ptRNase (H358 cells (KRAS G12C) [5]): enhanced the efficacy of both agents
EC50 [3]: 74 ± 8 µM

B1: R4C/G38R/R39G/N67R/G89R/S90R/V118C RNase 1 (protein, UniProt P07998 29-156, looked up, variant R4C G38R R39G N67R G89R S90R V118C)
Ribonuclease pancreatic: KESCAKKFQRQHMDSDSSPSSSSTYCNQMMRRRNMTQRGCKPVNTFVHEPLVDVQNVCFQEKVTCKRGQGNCYKSNSSMHITDCRLTNRRRYPNCAYRTSPKERHIIVACEGSPYVPCHFDASVEDST
notes: gift from Quintessence Biosciences
EC50 (H358 cells (KRAS G12C) [6]; H358 cells (KRAS G12C), single agent, mean ± SEM, n = 3): 3.6 ± 0.6 µM
cytotoxicity to H358 cells compared to A549 cells (H358 cells (KRAS G12C) [6]; H358 versus A549): 20 fold
EC50 [3]: 62 ± 7 µM
